Results as given in patent US8703953B2, “Aryl ether-base kinase inhibitors” (Bristol-Myers Squibb Company, priority 2012, dated 2014).

What was measured:
GST-Xa-hAAK1 = target: T1, GST-Xa-hAAK1 (Homo sapiens, UniProt Q2M2I8); assay: AAK1 Kinase Assay (Caliper LabChip, fluoresceinated peptide substrate); assay type: biochemical; settings: ATP 22 μM
T1 construct: made in house
Description: The assays were performed in U-bottom 384-well plates. The final assay volume was 30 μl prepared from 15 μl additions of enzyme and substrates (fluoresceinated peptide (5-FAM)-Aha-[…]-NH2 and ATP) and test compounds in assay buffer (10 mM Tris-HCL pH 7.4, 10 mM MgCl2, 0.01% Tween-20 and 1.0 mM DTT). The reactions were initiated by the combination of bacterially expressed, GST-Xa-hAAK1 with substrates and test compounds. The reactions were incubated at room temperature for 3 hours and terminated by adding 60 μl of 35 mM EDTA buffer to each sample. The reactions were analyzed on the Caliper LabChip 3000 (Caliper, Hopkinton, Mass.) by electrophoretic separation of the fluorescent substrate and phosphorylated product. […] The final concentration of reagents in the assays are ATP, 22 μM; (5-FAM)-Aha-[…]-NH2, 1.5 μM; GST-Xa-hAAK1, 3.5 nM; and DMSO, 1.6%. Dose response curves were generated to determine the concentration required inhibiting 50% of kinase activity (IC50). Compounds were dissolved at 10 mM in dimethylsulfoxide (DMSO) and evaluated at eleven concentrations. IC50 values were derived by non-linear regression analysis.

AAK1 (full length human) = target: T2, AAK1 (full length human) (Homo sapiens, UniProt Q2M2I8); assay: HEK281 Cell-Based Assay (HEK293F cells transfected with AAK1 and AP2M1; phospho-mu2 Western blot); settings: 3 h
T2 construct: HA; expressed in transfected cells; host or cells: HEK293F
T2 sequence (Q2M2I8 whole entry): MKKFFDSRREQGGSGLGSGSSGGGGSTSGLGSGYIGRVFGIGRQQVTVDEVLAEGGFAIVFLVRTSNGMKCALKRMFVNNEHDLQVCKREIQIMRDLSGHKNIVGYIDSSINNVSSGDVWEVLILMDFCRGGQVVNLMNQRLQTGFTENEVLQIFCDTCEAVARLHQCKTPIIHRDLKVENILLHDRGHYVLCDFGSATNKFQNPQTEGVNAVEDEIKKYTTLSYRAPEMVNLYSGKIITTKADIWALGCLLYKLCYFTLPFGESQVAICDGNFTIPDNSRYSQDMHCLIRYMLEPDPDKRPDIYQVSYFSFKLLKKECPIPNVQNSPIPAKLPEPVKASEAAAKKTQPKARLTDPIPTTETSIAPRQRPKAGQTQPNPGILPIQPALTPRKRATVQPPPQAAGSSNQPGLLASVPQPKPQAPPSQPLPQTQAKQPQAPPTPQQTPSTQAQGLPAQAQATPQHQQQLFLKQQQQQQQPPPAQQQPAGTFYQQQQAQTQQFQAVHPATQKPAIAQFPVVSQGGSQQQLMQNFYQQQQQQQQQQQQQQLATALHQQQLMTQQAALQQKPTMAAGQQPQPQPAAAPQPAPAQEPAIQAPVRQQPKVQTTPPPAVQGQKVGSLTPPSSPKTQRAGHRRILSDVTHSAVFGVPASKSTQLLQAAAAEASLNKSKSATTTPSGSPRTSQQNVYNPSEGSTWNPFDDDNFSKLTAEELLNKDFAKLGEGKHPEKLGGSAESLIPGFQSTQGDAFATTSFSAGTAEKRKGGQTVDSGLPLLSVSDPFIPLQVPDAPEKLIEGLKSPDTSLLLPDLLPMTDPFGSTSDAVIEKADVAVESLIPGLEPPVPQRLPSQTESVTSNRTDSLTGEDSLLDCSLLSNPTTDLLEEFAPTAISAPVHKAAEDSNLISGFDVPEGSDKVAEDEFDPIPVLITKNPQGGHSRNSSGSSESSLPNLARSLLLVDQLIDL
Description: HEK293F cells were cultured in media containing DMEM (Gibco, cat. #11965), 10% FBS (SAFC Biosciences, cat. #12103C), 1× GPS (glutamine, penicillin and streptomycin). On day one, cells were plated on a 10 cm dish so that they are ˜80% confluent at time of transfection. Roughly 12 million cells were in a 10 cm dish at time of transfection. On day two, each dish was transfected with 48 ug DNA and 144 μl Lipofectamine 2000 (Invitrogen, cat. #11668-019). The DNA was comprised of a mixture (per 10 cm dish) containing 3 ug AAK1/HA/pIRES (full length human, NCBI accession no. NP_055726.2), 45 μg Flag/AP2MI/pcDNA (full length human), and 1.5 ml OPTI-MEM. The Lipofectamine 2000 is made up of a mixture (per 10 cm dish) containing 144 μl Lipofectamine 2000 and 1.5 ml OPTI-MEM. Each mixture was transferred to individual 15 ml tubes and incubated at RT for 5 minutes, and then the two mixes were combined and incubated at RT for 20 minutes. Growth media was then aspirated from each 10 cm plate and replaced with 10 ml of DMEM+10% FBS (no GPS). Finally, 3 ml DNA/Lipofectamine mix was added to each 10 cm dish and mix gently followed by incubate of plate overnight at 37° C. and 5% CO2.
On day three, compounds were diluted in 100% DMSO at 1000× final concentration, followed by 3-fold serial dilutions for a total of 5 concentrations tested. Four compounds were tested per 10 cm dish. One ul of each compound dilution was then pipetted into a deep-well, 96-well plate, followed by addition of 500 μl DMEM+0.5% FBS into each well for a 2× final concentration of each compound. Cells were resuspended in a 10 cm dish by simple pipetting (HEK293 cells come off the plate that easy at this point) and then transferred to a 50 ml conical tube and pelleted by centrifugation at 1000 rpm for 5 min. Cell pellets were then resuspended in 2.75 ml DMEM+0.5% FBS per 10 cm dish and 100 μl of cell suspension transferred into each well of 96-well TC plate. Finally, 100 μl of 2× compound diluted in DMEM+0.5% FBS was then added into wells containing cell suspension for a 1× final concentration. Plates were then incubated at 37° C. and 5% CO2 for 3 hours followed by transferring of cell suspensions from each well into 12-tube PCR strips. The PCR strips were spun in a tip rack at 1000 rpm for 5 minutes to pellet cells and media was then removed by pipetting without disturbing the cell pellet.
To prepare for Western Blot analysis, cell pellets were resuspend in 40 ul 1× LDS-PAGE sample buffer (Invitrogen, cat. #NP0008)+2× Halt phophatase and protease inhibitor cocktail (Thermo Scientific, cat. #1861284), followed by sonicating each with microtip sonicator set at 5 for 8-10 seconds. Five ul of 10× NuPage Sample Reducing Agent (with […]) was to each sample followed by heat denaturing at 70C for 10 min on PCR machine. A total of 10 μl per sample was loaded into each lane of a 4-20% Tris-Glycine Criterion 26-well gel (Biorad, cat. #345-0034) for the phospho-mu2 blot and 10 μl per lane in a 4-12% Bis-Tris (+MES buffer) NuPAGE 26-well gel (Invitrogen, cat. #WG1403BX10) for the mu2 blot. For controls, 2 ng of phospho-mu2 or 20 ng mu2/Flag proteins were loaded in the last well of each gel. After SDS-PAGE, samples on each gel were transferred to PVDF membrane using an iBlot and membranes were blocked for one hour in TBST+5% milk, followed by wash 3× for 5-10 min with TBST. Criterion gels were probed with rabbit anti-phospho-mu2 (1:5000; a rabbit polyclonal antibody produced by New England Peptide and affinity purified at Lexicon) in TBST+5% BSA, whereas, NuPAGE gels were probed with mouse anti-Flag (1:500; Sigma, cat. #F1804) in TBST+5% milk, and these primary antibodies were incubated overnight at 4° C. on a rocker. […]

T1 sequence (Q2M2I8 whole entry): as above

Compound: CC(C)C[C@H](N)COc1ccc2c(c1)OC(C)c1cnccc1-2 (mixture of isomers) [Example 6, (2S)-4-methyl-1-(5-methyl-5H-chromeno[3,4-c]pyridin-8-yloxy)pentan-2-amine]
- IC50 (GST-Xa-hAAK1; listed as IC50 ranges): 1 to 10 nM

Compound: CC(C)C[C@H](N)COc1ccc2c(c1)OC(C1CC1)c1cnccc1-2 (mixture of isomers) [Example 8, (2S)-1-(5-cyclopropyl-5H-chromeno[3,4-c]-pyridin-8-yloxy)-4-methylpentan-2-amine]
- IC50 (GST-Xa-hAAK1; listed as IC50 ranges): 10 to 100 nM
- IC50 (AAK1 (full length human); listed as IC50 ranges): 10 to 100 nM

Compound: CCC1Oc2cc(OC[C@@H](N)CC(C)C)ccc2-c2ccncc21 (mixture of isomers) [Example 10, (2S)-1-(5-ethyl-5H-chromeno[3,4-c]pyridin-8-yloxy)-4-methylpentan-2-amine]
- IC50 (GST-Xa-hAAK1; listed as IC50 ranges): 10 to 100 nM
- IC50 (AAK1 (full length human); listed as IC50 ranges): 10 to 100 nM

Compound: CC(C)C[C@H](N)COc1cc2c(cc1Br)-c1ccncc1C(C)O2 (mixture of isomers) [Example 21, (2S)-1-(9-bromo-5-methyl-5H-chromeno[3,4-c]pyridin-8-yloxy)-4-methylpentan-2-amine]
- IC50 (GST-Xa-hAAK1; listed as IC50 ranges): 1 to 10 nM
- IC50 (AAK1 (full length human); listed as IC50 ranges): < 1 nM

Compound: CC(C)C[C@H](N)COc1cc2c(cc1C#N)-c1ccncc1C(C)O2 (mixture of isomers) [Example 22, 8-((S)-2-amino-4-methylpentyloxy)-5-methyl-5H-chromeno[3,4-c]pyridine-9-carbonitrile]
- IC50 (GST-Xa-hAAK1; listed as IC50 ranges): 1 to 10 nM
- IC50 (AAK1 (full length human); listed as IC50 ranges): < 1 nM

Compound: CC1Oc2cc(OC[C@@H](N)CC3CCCC3)ccc2-c2ccncc21 (mixture of isomers) [Example 24, (2S)-1-cyclopentyl-3-(5-methyl-5H-chromeno[3,4-c]pyridin-8-yloxy)propan-2-amine]
- IC50 (GST-Xa-hAAK1; listed as IC50 ranges): 10 to 100 nM
- IC50 (AAK1 (full length human); listed as IC50 ranges): 10 to 100 nM

Compound: CC(C)C[C@H](N)COc1cc2c(cc1Cl)-c1ccncc1C(C(F)(F)F)O2 (mixture of isomers) [Example 27, (2S)-1-((9-chloro-5-(trifluoromethyl)-5H-chromeno[3,4-c]pyridin-8-yl)oxy)-4-methylpentan-2-amine]
- IC50 (GST-Xa-hAAK1; listed as IC50 ranges): 1 to 10 nM
- IC50 (AAK1 (full length human); listed as IC50 ranges): 1 to 10 nM

Compound: CC(C)C[C@H](N)COc1cc2c(cc1Br)-c1ccncc1C(C(F)(F)F)O2 (mixture of isomers) [Example 28, (2S)-1-((9-bromo-5-(trifluoromethyl)-5H-chromeno[3,4-c]pyridin-8-yl)oxy)-4-methylpentan-2-amine]
- IC50 (GST-Xa-hAAK1; listed as IC50 ranges): 1 to 10 nM
- IC50 (AAK1 (full length human); listed as IC50 ranges): 1 to 10 nM

Compound: NC(CCC(F)(F)F)COc1ccc2c(c1)OCc1cnccc1-2 (racemic) [Example 17, 1-(5H-chromeno[3,4-c]pyridin-8-yloxy)-5,5,5-trifluoropentan-2-amine]
- IC50 (GST-Xa-hAAK1; listed as IC50 ranges): 10 to 100 nM
- IC50 (AAK1 (full length human); listed as IC50 ranges): 10 to 100 nM

Compound: CC(C)C[C@@H](N)COc1ccc2c(c1)OC(C)c1cnccc1-2 (single isomer, unassigned) [Example 7b]
- IC50 (GST-Xa-hAAK1; listed as IC50 ranges): 10 to 100 nM

Compound: CC(C)C[C@H](N)COc1ccc2c(c1)OC(C1CC1)c1cnccc1-2 (single isomer, unassigned) [Example 8a]
- IC50 (GST-Xa-hAAK1; listed as IC50 ranges): 100 to 1000 nM

Compound: CC(C)C[C@@H](N)COc1ccc2c(c1)OC(C1CC1)c1cnccc1-2 (single isomer, unassigned) [Example 9b]
- IC50 (AAK1 (full length human); numeric values): > 300 nM

Compound: CCC1Oc2cc(OC[C@@H](N)CC(C)C)ccc2-c2ccncc21 (single isomer, unassigned) [Example 10b]
- IC50 (GST-Xa-hAAK1; listed as IC50 ranges): 10 to 100 nM

Compound: CC(C)C[C@H](N)COc1cc2c(cc1I)-c1ccncc1C(C)O2 (single isomer, unassigned) [Example 31a]
- IC50 (GST-Xa-hAAK1; listed as IC50 ranges): 1 to 10 nM

Compound: CC(C)C[C@H](N)COc1cc2c(cc1I)-c1ccncc1C(C)O2 (single isomer, unassigned) [Example 31b]
- IC50 (GST-Xa-hAAK1; listed as IC50 ranges): 1 to 10 nM

Compound: CC(C)C[C@@H](N)COc1ccc2c(c1)OCc1cnccc1-2 [Example 1, (R)-1-(5H-chromeno[3,4-c]pyridin-8-yloxy)-4-methylpentan-2-amine]
- IC50 (GST-Xa-hAAK1; numeric values): 20 nM

Compound: N[C@@H](COc1ccc2c(c1)OCc1cnccc1-2)Cc1ccccc1 [Example 2, (R)-1-(5H-chromeno[3,4-c]pyridin-8-yloxy)-3-phenylpropan-2-amine]
- IC50 (GST-Xa-hAAK1; listed as IC50 ranges): 100 to 1000 nM

Compound: CC[C@@H](N)COc1ccc2c(c1)OCc1cnccc1-2 [Example 3, (R)-1-(5H-chromeno[3,4-c]pyridin-8-yloxy)butan-2-amine]
- IC50 (GST-Xa-hAAK1; listed as IC50 ranges): 100 to 1000 nM

Compound: CC[C@H](N)COc1ccc2c(c1)OCc1cnccc1-2 [Example 4, (S)-1-(5H-chromeno[3,4-c]pyridin-8-yloxy)butan-2-amine]
- IC50 (GST-Xa-hAAK1; listed as IC50 ranges): 10 to 100 nM

Compound: CC(C)C[C@@H](N)COc1ccc2c(c1)OC(C1CC1)c1cnccc1-2 (stereo partly drawn) [Example 9]
- IC50 (GST-Xa-hAAK1; listed as IC50 ranges): 100 to 1000 nM

Compound: CC(C)C[C@H](N)COc1ccc2c(c1)OC1(COC1)c1cnccc1-2 [Example 19, (S)-4-methyl-1-(spiro[chromeno[3,4-c]pyridine-5,3′-oxetan]-8-yloxy)pentan-2-amine]
- IC50 (GST-Xa-hAAK1; listed as IC50 ranges): 100 to 1000 nM

Compound: CC(C)C[C@H](N)COc1ccc2c(c1)OC(CO)(CCl)c1cnccc1-2 (stereo partly drawn) [Example 20, (8-(((S)-2-amino-4-methylpentyl)oxy)-5-(chloromethyl)-5H-chromeno[3,4-c]pyridin-5-yl)methanol]
- IC50 (GST-Xa-hAAK1; listed as IC50 ranges): 10 to 100 nM

Compound: CC(C)C[C@H](N)COc1cc2c(cc1C#N)-c1ccncc1CO2 [Example 23, (S)-8-(2-amino-4-methylpentyloxy)-5H-chromeno[3,4-c]pyridine-9-carbonitrile]
- IC50 (GST-Xa-hAAK1; listed as IC50 ranges): 1 to 10 nM

Compound: CC(C)C[C@H](N)COc1ccc2c(c1)OC(C)c1cnc(N)cc1-2 (stereo partly drawn) [Example 29, 8-(((S)-2-amino-4-methylpentyl)oxy)-5-methyl-5H-chromeno[3,4-c]pyridin-2-amine]
- IC50 (GST-Xa-hAAK1; listed as IC50 ranges): 10 to 100 nM

Compound: CC(=O)Nc1cc2c(cn1)C(C)Oc1cc(OC[C@@H](N)CC(C)C)ccc1-2 (stereo partly drawn) [Example 30, N-(8-(((S)-2-amino-4-methylpentyl)oxy)-5-methyl-5H-chromeno[3,4-c]pyridin-2-yl)acetamide]
- IC50 (GST-Xa-hAAK1; listed as IC50 ranges): 10 to 100 nM

Compound: Cc1nccc2c1c(=O)oc1cc(OC[C@@H](N)CC(C)C)ccc12 [Example 34, (S)-8-((2-amino-4-methylpentyl)oxy)-4-methyl-5H-chromeno[3,4-c]pyridin-5-one]
- IC50 (GST-Xa-hAAK1; listed as IC50 ranges): 10 to 100 nM

Compound: Cc1cc2c(cn1)COc1cc(OC[C@@H](N)CC(C)C)ccc1-2 [Example 39, (S)-4-methyl-1-((2-methyl-5H-chromeno[3,4-c]pyridin-8-yl)oxy)pentan-2-amine]
- IC50 (GST-Xa-hAAK1; listed as IC50 ranges): 100 to 1000 nM

Compound: CC(=O)Nc1cc2c(cn1)COc1cc(OC[C@H](N)CC(C)C)ccc1-2 [Example 40, (R)-N-(8-(2-amino-4-methylpentyloxy)-5H-chromeno[3,4-c]pyridin-2-yl)acetamide]
- IC50 (GST-Xa-hAAK1; listed as IC50 ranges): 1 to 10 nM
